# Measurements reported in US7091182B2, “Method for assisting in differential diagnosis and treatment of autistic syndromes” (Repligen Corporation, priority 1997, dated 2006).
# Entries after “also recorded” stand apart in the source; their conditions may differ.
# Experiments:
# [1] = test system: children with autistic behavior; assay: Blood levels of gastrointestinal peptide hormones and neurotransmitters prior to and 10 minutes after secretin stimulation; assay type: in vivo, human
# Procedure: After fasting from midnight, upper gastrointestinal endoscopies were carried out the next morning under general anesthesia. All gastric juice was aspirated before passing the endoscope into the duodenum. The pancreatico-biliary juice was collected after positioning the endoscope distal to the ampulla of Vater. An ERCP catheter was placed into the channel of endoscope and the fluid was collected by moving the tip into the outcoming fluid and suctioning it into a syringe. The pancreas was then stimulated with secretin 2 IU/kg BW (Ferring Laboratories, Inc. Suffern, NY, USA) given intravenously within a minute. Three additional specimens were collected after the secretin injection within a 10-minute period. Blood samples were collected prior to and 10 minutes after secretin stimulation. In a subgroup of children, the effect of duodenal acidification was determined by measurement of blood secretin levels before and 4–5 minutes after washing the second part of the duodenum with 0.05M hydrochloric acid for 5 minutes. At the end of the procedure, biopsies were obtained of the small intestine, esophagus and stomach.
# Blood samples were analyzed for the levels of gastrointestinal peptide hormones (Secretin, CCK, VIP, Peptide Y) and neurotransmitters (Serotonin, Substance P). All the assays were performed in the Interscience Institute (Inglewood, Calif.) specialized in gastrointestinal hormone measurements.
# [2] = test system: children with autistic behavior; assay: Evoked potential studies and SPECT imaging of the brain before and after secretin (Case 1); assay type: in vivo, human
# Description: Case 1. […], was the product of a full-term uncomplicated pregnancy. Development of language and social behavior proceeded normally until about 15 months of age. At that time they lost their expressive vocabulary and their social behavior deteriorated. They were clinically diagnosed with autism by a pediatric neurologist. A multidisciplinary evaluation changed the diagnosis to PDD not otherwise specified. […] Because of their chronic diarrhea and elevated antigliadin IgG antibody titer, they underwent an upper gastrointestinal endoscopy. […] Three weeks after the procedure their parent reported significant changes in their gastrointestinal symptoms and behavior. […] More dramatic changes occurred in their autistic behavior (Table 4). […] Eight months after the procedure they have still retained their cognitive gains.
# rats = conditions: ICV; cited from earlier work
# [3] = test system: patients with intrahepatic cholestasis; conditions: double-blind placebo-controlled multicentric trial; cited from earlier work
substance,measurement,setting,value
secretin,Serotonin level after secretin injection,[1]; Group I (chronic loose stools/diarrhea),>50% elevation
same,Serotonin level after secretin injection,[1]; Group II (no diarrhea),<50% elevation
same,blood level of CCK,[1]; after secretin injection,no change at all
same,blood level of VIP,[1]; after secretin injection,no change at all
same,blood level of substance P,[1]; after secretin injection,no change at all
same,blood serotonin level,"[1]; children with chronic diarrhea, ten minutes after secretin injection, fasting",significant elevation
same,blood level of Peptide Y,"[1]; four children, before or after secretin administration",no abnormality
same,repeat evoked potential studies,"[2]; Case 1, eight months after secretin administration",only a minimal delay in responses
same,"SPECT, cerebral perfusion / blood flow","[2]; Case 1, follow-up versus pre-secretin study",marked improvement in the cerebral blood flow; also recorded: less marked decrease in perfusion of right posterior parietal and right temporal lobes
same,defecation,rats,significantly increased
same,novel-object approaches,rats,decreased
same,stereotypic behavior,rats,no significant effects
same,"reduction of serum bilirubin levels, secretin versus placebo",[3],no statistically significant differences
